ChEMBL document CHEMBL5537122, “Design, synthesis, and biological evaluation of 4-(2-fluorophenoxy)-7-methoxyquinazoline derivatives as dual EGFR/c-Met inhibitors for the treatment of NSCLC” (Eur J Med Chem, 2024)

How the values were obtained:
Homo sapiens = species: Homo sapiens; assay: Inhibition of EGFR T790/C797S mutant (unknown origin) at 10 uM relative to control
NCI-H1975 [1] = assay: Induction in apoptosis in human NCI-H1975 cells assessed as viable cells at 1 uM incubated for 24 hrs by Annexin V-FITC/Propidium Iodide staining based flow cytometry analysis (reference value: 91.58 %); type: functional; details: read-out: Activity
A549 [2] = assay: Induction of cell cycle arrest in human A549 cells overexpressing c-MET assessed as accumulation of cells at S phase at 1 uM incubated for 24 hrs by RNase A/propidium iodide staining based flow cytometric analysis (reference value: 37.87 %); type: functional
A549 [3] = assay: Induction in apoptosis in human A549 cells overexpressing c-MET assessed as early apoptotic cells at 1 uM incubated for 24 hrs by Annexin V-FITC/Propidium Iodide staining based flow cytometry analysis (reference value: 7.27 %); type: functional
L02 [4] = assay: Induction in apoptosis in human L02 cells assessed as necrotic cells at 1 uM incubated for 24 hrs by Annexin V-FITC/Propidium Iodide staining based flow cytometry analysis (reference value: 6.63 %); type: toxicity, cell-based; details: l02, 24 h
L02 [5] = assay: Induction in apoptosis in human L02 cells assessed as early apoptotic cells at 1 uM incubated for 24 hrs by Annexin V-FITC/Propidium Iodide staining based flow cytometry analysis (reference value: 0.26 %); type: toxicity, cell-based; details: l02, 24 h
A549 [6] = assay: Induction in apoptosis in human A549 cells overexpressing c-MET assessed as necrotic cells at 1 uM incubated for 24 hrs by Annexin V-FITC/Propidium Iodide staining based flow cytometry analysis (reference value: 3.22 %); type: functional
A549 [7] = assay: Induction of cell cycle arrest in human A549 cells overexpressing c-MET assessed as accumulation of cells at G1/G0 phase at 1 uM incubated for 24 hrs by RNase A/propidium iodide staining based flow cytometric analysis (reference value: 49.24 %); type: functional
NCI-H1975 [8] = assay: Induction in apoptosis in human NCI-H1975 cells assessed as late apoptotic cells at 1 uM incubated for 24 hrs by Annexin V-FITC/Propidium Iodide staining based flow cytometry analysis (reference value: 4.46 %); type: functional
L02 [9] = assay: Induction in apoptosis in human L02 cells assessed as late apoptotic cells at 1 uM incubated for 24 hrs by Annexin V-FITC/Propidium Iodide staining based flow cytometry analysis (reference value: 0.36 %); type: toxicity, cell-based; details: l02, 24 h
NCI-H1975 [10] = assay: Induction in apoptosis in human NCI-H1975 cells assessed as early apoptotic cells at 1 uM incubated for 24 hrs by Annexin V-FITC/Propidium Iodide staining based flow cytometry analysis (reference value: 2.54 %); type: functional
[11] = Hemolytic activity in sheep erythrocytes at 64 ug/ml incubated for 2 hr by UV spectrophotometer relative to control; type: toxicity, cell-based, Ovis aries, Erythrocyte; details: at 64 µg/mL, read-out: Activity
A549 [12] = assay: Induction in apoptosis in human A549 cells overexpressing c-MET assessed as late apoptotic cells at 1 uM incubated for 24 hrs by Annexin V-FITC/Propidium Iodide staining based flow cytometry analysis (reference value: 7.59 %); type: functional
A549 [13] = assay: Induction in apoptosis in human A549 cells overexpressing c-MET assessed as viable cells at 1 uM incubated for 24 hrs by Annexin V-FITC/Propidium Iodide staining based flow cytometry analysis (reference value: 81.92 %); type: functional; details: read-out: Activity
NCI-H1975 [14] = assay: Induction in apoptosis in human NCI-H1975 cells assessed as necrotic cells at 1 uM incubated for 24 hrs by Annexin V-FITC/Propidium Iodide staining based flow cytometry analysis (reference value: 1.42 %); type: functional
[15] = Induction in apoptosis in human L02 cells assessed as viable cells at 1 uM incubated for 24 hrs by Annexin V-FITC/Propidium Iodide staining based flow cytometry analysis (reference value: 92.75 %); type: toxicity, cell-based; details: read-out: Activity
NCI-H1975 [16] = assay: Antiproliferative activity against human NCI-H1975 cells overexpressing c-Met and EGFR assessed as reduction in cell viability incubated for 72 hrs by MTT assay; type: functional, cell-based; details: NCI-H1975, 72 h
A549 [17] = assay: Antiproliferative activity against human A549 cells overexpressing c-Met and EGFR assessed as reduction in cell viability incubated for 72 hrs by MTT assay; type: functional, cell-based; details: A549, 72 h
[18] = molecular target: Hepatocyte growth factor receptor (Homo sapiens, UniProt P08581); assay: biochemical
Sequence of Hepatocyte growth factor receptor (P08581 whole entry): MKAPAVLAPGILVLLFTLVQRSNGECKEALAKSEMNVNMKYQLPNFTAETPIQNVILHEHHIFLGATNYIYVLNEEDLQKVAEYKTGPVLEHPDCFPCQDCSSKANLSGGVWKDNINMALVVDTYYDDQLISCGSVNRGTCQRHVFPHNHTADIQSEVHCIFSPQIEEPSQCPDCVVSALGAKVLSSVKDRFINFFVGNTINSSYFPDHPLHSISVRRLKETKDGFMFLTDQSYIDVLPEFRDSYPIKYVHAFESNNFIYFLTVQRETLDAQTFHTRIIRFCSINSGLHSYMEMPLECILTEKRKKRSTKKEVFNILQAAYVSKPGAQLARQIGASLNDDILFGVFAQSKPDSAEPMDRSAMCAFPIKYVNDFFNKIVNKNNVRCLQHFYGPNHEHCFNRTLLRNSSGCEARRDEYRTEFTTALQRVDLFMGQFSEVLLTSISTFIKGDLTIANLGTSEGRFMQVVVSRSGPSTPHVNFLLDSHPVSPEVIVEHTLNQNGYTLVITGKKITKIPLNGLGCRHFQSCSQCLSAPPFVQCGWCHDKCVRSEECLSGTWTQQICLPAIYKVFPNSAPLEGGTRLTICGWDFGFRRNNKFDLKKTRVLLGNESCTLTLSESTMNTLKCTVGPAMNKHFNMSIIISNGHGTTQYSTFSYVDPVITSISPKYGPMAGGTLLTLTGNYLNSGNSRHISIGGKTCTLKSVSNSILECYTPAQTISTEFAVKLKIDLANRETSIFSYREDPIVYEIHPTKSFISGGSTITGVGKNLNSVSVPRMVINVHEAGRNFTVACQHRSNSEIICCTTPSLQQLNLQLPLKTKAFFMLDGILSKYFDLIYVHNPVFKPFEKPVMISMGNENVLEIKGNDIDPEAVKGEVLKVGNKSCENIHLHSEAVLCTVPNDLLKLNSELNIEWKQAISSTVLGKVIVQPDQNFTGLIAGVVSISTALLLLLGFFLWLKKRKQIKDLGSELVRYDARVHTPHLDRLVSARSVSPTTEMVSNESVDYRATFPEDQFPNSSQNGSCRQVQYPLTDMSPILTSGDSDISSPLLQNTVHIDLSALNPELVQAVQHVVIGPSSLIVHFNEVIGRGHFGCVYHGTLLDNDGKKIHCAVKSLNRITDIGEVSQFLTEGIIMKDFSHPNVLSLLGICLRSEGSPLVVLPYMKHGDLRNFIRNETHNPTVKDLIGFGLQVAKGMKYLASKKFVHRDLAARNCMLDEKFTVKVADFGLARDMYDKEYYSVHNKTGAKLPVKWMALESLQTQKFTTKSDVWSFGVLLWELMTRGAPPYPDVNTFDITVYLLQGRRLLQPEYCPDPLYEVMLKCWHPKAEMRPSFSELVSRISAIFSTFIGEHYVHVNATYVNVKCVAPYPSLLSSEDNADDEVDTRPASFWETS
Description: Inhibition of N-terminal GST tagged human recombinant c-Met (956 to end residues) expressed in baculovirus infected Sf9 cells using Poly (4:1 Glu, Tyr) as substrate incubated for 60 mins in presence of ATP by ADP-Glo luminescent assay

PC-9 = assay: Antiproliferative activity against human PC-9 cells overexpressing c-Met and EGFR assessed as reduction in cell viability incubated for 72 hrs by MTT assay; type: functional, cell-based; details: PC-9, 72 h
[19] = molecular target: Epidermal growth factor receptor (Homo sapiens, UniProt P00533); assay: biochemical
Sequence of Epidermal growth factor receptor (Homo sapiens, UniProt P00533) (P00533 whole entry): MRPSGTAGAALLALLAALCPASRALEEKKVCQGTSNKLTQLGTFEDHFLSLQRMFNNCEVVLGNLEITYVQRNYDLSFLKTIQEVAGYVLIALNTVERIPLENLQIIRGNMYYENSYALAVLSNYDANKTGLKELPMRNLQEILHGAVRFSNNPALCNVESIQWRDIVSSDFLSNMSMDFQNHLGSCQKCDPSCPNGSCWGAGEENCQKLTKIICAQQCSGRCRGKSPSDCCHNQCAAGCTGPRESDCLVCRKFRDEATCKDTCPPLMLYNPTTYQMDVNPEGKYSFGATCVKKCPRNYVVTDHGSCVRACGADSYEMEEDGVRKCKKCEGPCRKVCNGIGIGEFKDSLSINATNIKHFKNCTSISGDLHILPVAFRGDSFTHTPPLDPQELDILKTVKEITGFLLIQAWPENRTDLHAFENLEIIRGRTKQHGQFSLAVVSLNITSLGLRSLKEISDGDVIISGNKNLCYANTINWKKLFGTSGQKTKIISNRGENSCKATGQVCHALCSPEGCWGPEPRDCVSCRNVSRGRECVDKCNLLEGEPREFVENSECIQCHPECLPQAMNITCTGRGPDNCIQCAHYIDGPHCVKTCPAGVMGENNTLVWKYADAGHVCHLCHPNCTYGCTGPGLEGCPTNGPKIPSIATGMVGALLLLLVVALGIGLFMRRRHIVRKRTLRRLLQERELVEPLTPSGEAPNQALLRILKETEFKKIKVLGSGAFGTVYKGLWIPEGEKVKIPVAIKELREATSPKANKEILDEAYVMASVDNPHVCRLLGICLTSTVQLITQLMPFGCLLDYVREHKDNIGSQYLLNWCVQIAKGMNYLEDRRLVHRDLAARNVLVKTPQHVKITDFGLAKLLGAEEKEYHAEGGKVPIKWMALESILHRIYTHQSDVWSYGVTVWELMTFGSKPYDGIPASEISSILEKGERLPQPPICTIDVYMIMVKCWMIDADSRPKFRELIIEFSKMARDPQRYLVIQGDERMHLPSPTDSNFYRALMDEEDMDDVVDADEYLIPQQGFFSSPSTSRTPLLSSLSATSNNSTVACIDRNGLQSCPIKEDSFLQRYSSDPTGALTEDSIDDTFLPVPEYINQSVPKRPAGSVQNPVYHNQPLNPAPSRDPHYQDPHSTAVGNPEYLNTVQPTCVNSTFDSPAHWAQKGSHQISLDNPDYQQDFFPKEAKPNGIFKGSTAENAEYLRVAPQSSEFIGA
Description: Inhibition of N-terminal GST tagged human recombinant EGFR (695 to end residues) expressed in baculovirus infected Sf9 cells using Poly (4:1 Glu, Tyr) as substrate incubated for 60 mins in presence of ATP by ADP-Glo luminescent assay

[20] = molecular target: Epidermal growth factor receptor (Homo sapiens, UniProt P00533, L858R); assay: biochemical
Sequence of Epidermal growth factor receptor (Homo sapiens, UniProt P00533, L858R) (P00533 25-1210 L858R limits assumed): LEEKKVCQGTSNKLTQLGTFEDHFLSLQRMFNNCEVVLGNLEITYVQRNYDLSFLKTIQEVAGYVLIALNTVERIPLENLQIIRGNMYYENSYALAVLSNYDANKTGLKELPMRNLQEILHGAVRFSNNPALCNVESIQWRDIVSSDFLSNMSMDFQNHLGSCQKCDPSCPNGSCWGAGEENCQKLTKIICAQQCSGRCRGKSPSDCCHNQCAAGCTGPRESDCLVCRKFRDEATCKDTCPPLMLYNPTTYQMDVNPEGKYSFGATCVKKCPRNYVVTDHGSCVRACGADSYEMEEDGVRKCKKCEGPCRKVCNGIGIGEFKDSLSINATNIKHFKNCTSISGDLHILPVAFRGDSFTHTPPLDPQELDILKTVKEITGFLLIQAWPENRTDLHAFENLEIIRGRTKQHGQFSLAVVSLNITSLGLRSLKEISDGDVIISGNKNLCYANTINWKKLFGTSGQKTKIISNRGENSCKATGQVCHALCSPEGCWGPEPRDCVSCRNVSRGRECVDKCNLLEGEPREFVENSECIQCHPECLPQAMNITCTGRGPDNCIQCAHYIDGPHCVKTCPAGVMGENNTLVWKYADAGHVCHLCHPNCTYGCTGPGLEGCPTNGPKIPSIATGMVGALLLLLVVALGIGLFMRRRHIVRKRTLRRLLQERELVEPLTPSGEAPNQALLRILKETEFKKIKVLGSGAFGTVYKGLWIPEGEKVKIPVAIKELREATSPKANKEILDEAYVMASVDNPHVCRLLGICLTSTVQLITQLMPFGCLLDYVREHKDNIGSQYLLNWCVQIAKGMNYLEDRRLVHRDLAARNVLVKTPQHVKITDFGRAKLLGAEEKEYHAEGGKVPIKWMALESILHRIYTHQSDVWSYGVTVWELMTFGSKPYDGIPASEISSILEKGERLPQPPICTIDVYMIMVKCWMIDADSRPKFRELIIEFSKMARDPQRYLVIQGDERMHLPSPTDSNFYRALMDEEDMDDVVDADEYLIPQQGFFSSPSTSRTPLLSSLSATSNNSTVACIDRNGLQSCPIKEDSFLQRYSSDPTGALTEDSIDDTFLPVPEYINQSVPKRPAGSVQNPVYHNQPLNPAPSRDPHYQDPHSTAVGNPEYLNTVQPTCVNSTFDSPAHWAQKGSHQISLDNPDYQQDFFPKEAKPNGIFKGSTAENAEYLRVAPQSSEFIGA

Compound | IC50 (NCI-H1975 [16]) | IC50 (A549 [17]) | IC50 [18] | IC50 (PC-9) | IC50 [19] | IC50 [20] | also measured
COc1cc2c(Oc3ccc(NC(=O)C4(C(=O)Nc5ccc(F)cc5)CC4)cc3F)ccnc2cc1OCCCN1CCOCC1 |  |  |  |  |  |  | inhibition (Homo sapiens): < 50%
CN(C)C/C=C/C(=O)Nc1cc2c(Nc3ccc(F)c(Cl)c3)ncnc2cc1O[C@H]1CCOC1 [AFATINIB] |  |  |  |  |  |  | viability at 1 µM (NCI-H1975 [1]): 89.7%; Activity (A549 [2]): 36.86%; Activity (A549 [3]): 9.36%; Activity (L02 [4]): 3.78%; Activity (L02 [5]): 0.19%; Activity (A549 [6]): 5.8%; Activity (A549 [7]): 52.24%; Activity (NCI-H1975 [8]): 6.17%; Activity (L02 [9]): 0.26%; Activity (NCI-H1975 [10]): 2.21%; hemolysis at 2 h, 64 ug/ml [11]: < 5%; Activity (A549 [12]): 12.21%; viability at 1 µM (A549 [13]): 72.6%; Activity (NCI-H1975 [14]): 1.88%; viability at 24 h, 1 µM [15]: 95.8%
CCCCC(=O)Nc1cc2c(Oc3ccc(NC(=O)CCCc4ccc(C)cc4)cc3F)ncnc2cc1OC | > 50 µM | 6.22 µM | 2000 nM | > 50 µM | > 10 µM | > 10 µM | 
CCC(=O)Nc1cc2c(Oc3ccc(NC(=O)NCCc4ccc(OC)c(OC)c4)cc3F)ncnc2cc1OC | > 50 µM | > 50 µM | 90.5 nM | > 50 µM | > 10 µM | > 10 µM | 
COc1cc2ncnc(Oc3ccc(NC(=O)CCCc4ccc(C)cc4)cc3F)c2cc1NC(=O)CCC(C)C | 27.5 µM | > 50 µM | 3070 nM | > 50 µM | > 10 µM | > 10 µM | 
C/C=C/C(=O)Nc1cc2c(Oc3ccc(NC(=O)CCCc4ccsc4)cc3F)ncnc2cc1OC | > 50 µM | 21.7 µM | 1390 nM | 1.63 µM | > 10 µM | > 10 µM | 
C=CC(=O)Nc1cc2c(Oc3ccc(NC(=O)CCCc4ccc(C)cc4)cc3F)ncnc2cc1OC | 0.43 µM | 5.21 µM | 394 nM | 7.67 µM | 1.79 µM | 1.47 µM | 
COc1cc2ncnc(Oc3ccc(NC(=O)CCCc4ccsc4)cc3F)c2cc1NC(=O)CCC(C)C | > 50 µM | 13 µM | 5550 nM | > 50 µM | > 10 µM | > 10 µM | 
CCCC(=O)Nc1cc2c(Oc3ccc(NC(=O)c4sc(-c5ccccc5)nc4C)cc3F)cccc2cc1OC | 5.1 µM | 8.15 µM | 71.9 nM | > 50 µM | > 10 µM | > 10 µM | 
CCCC(=O)Nc1cc2c(Oc3ccc(NC(=O)CCCc4ccsc4)cc3F)ncnc2cc1OC | > 50 µM | > 50 µM | 959 nM | 13.8 µM | > 10 µM | > 10 µM | 
C/C=C/C(=O)Nc1cc2c(Oc3ccc(NC(=O)CCCc4ccc(OC)cc4)cc3F)ncnc2cc1OC | > 50 µM | 6.43 µM | 493 nM | 8.17 µM | > 10 µM | > 10 µM | 
CCCCC(=O)Nc1cc2c(Oc3ccc(NC(=O)CCCc4ccc(F)cc4)cc3F)ncnc2cc1OC | 41.2 µM | > 50 µM | 533 nM | > 50 µM | > 10 µM | > 10 µM | 
C/C=C/C(=O)Nc1cc2c(Oc3ccc(NC(=O)c4c(-c5c(Cl)cccc5Cl)noc4C)cc3F)cccc2cc1OC | 17.2 µM | 19.5 µM | 3380 nM | 6.12 µM | > 10 µM | > 10 µM | 
CCC(=O)Nc1cc2c(Oc3ccc(NC(=O)CCCc4ccc(OC)cc4)cc3F)ncnc2cc1OC | 7.05 µM | 2.87 µM | 273 nM | 9.28 µM | > 10 µM | > 10 µM | 
CCCCC(=O)Nc1cc2c(Oc3ccc(NC(=O)CCCc4ccc(OC)cc4)cc3F)ncnc2cc1OC | 43.4 µM | 29.8 µM | 824 nM | > 50 µM | > 10 µM | > 10 µM | 
C/C=C/C(=O)Nc1cc2c(Oc3ccc(NC(=O)c4sc(-c5ccccc5)nc4C)cc3F)cccc2cc1OC | > 50 µM | 44.2 µM | 96.4 nM | > 50 µM | 2.32 µM | > 10 µM | 
CCC(=O)Nc1cc2c(Oc3ccc(NC(=O)CCCc4ccsc4)cc3F)ncnc2cc1OC | > 50 µM | 12.4 µM | 579 nM | 4.03 µM | > 10 µM | > 10 µM | 
C/C=C/C(=O)Nc1cc2c(Oc3ccc(NC(=O)CCCc4ccc(F)cc4)cc3F)ncnc2cc1OC | 4.78 µM | > 50 µM | 670 nM | 2.31 µM | 4.54 µM | 5.72 µM | 
CCCCC(=O)Nc1cc2c(Oc3ccc(NC(=O)CCCc4ccsc4)cc3F)ncnc2cc1OC | 37.6 µM | > 50 µM | 1560 nM | > 50 µM | > 10 µM | > 10 µM | 
